Experimental data reported in patent US20210198284A1, “GOLD COMPOSITIONS AND METHODS OF USE THEREOF” (THE UNIVERSITY OF MASSACHUSETTS, priority 2018, published 2021).

Experiments:
[1] = Log P determination (n-octanol/water, FAAS)
Protocol: Log P Determination: Calibration curves. Milli-Q Water (150 mL) was added to n-octanol (150 mL), and the mixture was stirred for 3 days to allow both phases to reach saturation. The gold standard solution (1000 ppm Au in hydrochloric acid, Fisher Scientific) was diluted to 1, 2, 3, 4 and 5 ppm with n-octanol-saturated water, and the absorbance of the resulting solutions was measured by flame atomic absorption spectroscopy (FAAS, Agilent Technology 200 Series AA, equipped with a gold HC Lamp-Au coded). The absorbance data were plotted against Au concentration, and the resulting calibration curve was used for determining the concentration of the analogs in the aqueous phase.
To construct the standard calibration curve of the Au concentration in the n-octanol phase, compound 27 was used. The Au concentration in compound 27 was first calibrated against the aqueous gold standard. For this, 0.440 mg of compound 27 was weighed on a Sartorius MC5 microbalance, and then added to 22 mL of n-octanol-saturated water. […] For this, solutions of varying concentrations (0.99, 2.47, 4.94, 5.93, 9.88 ppm) of compound 27 in water-saturated n-octanol were prepared. The absorbance was measured by FAAS, and the data were plotted against the Au concentration to provide a second calibration curve, which was used for determining the Au concentration of the analogs in the n-octanol phase.
Determination of Au concentrations: Method 1. 0.5 to 1 mg of compound was weighed into a 2-mL Eppendorf tube containing 2 mL of n-octanol-saturated water. After shaking for about 4 h, the solution was centrifuged at 6000 rpm for 3 min. 1 mL of the supernatant was transferred to a new tube containing 1 mL of water-saturated n-octanol, and the mixture was shaken for 1 h. After centrifugation at 6000 rpm for 5 min, the two layers were collected and the gold concentration in each layer was determined by FAAS by comparing the absorbance to the first and second calibration curves.
Determination of Au concentrations: Method 2. […] For Method 2, 0.6 to 1 mg of compound was weighed into a 2-mL Eppendorf tube containing 1 mL of n-octanol-saturated water and 1 mL of water-saturated n-octanol. After shaking for 3-4 h, the mixture was centrifuged, and all liquid was transferred to a 15-mL tube. The liquid was then diluted with 2 mL of n-octanol-saturated saturated water and 2 mL of water-saturated n-octanol, and the mixture was shaken for another hour. After centrifugation at 6000 rpm for 5 min, the two layers were collected and the gold concentration in each layer was determined by FAAS by comparing the absorbance to the first and second calibration curves.
Log P was calculated as follows: log P=log[compound]oct/[compound]water

A549 cells = assay: Cytotoxicity assay (resazurin); assay type: cell-based; conditions: 20 h, mean±S.E.M. from two independent experiments
Protocol: Sample preparation. The compounds were dissolved in DMSO at 12.8 mg/mL as the stock solutions, except for compounds 9-17, which were directly dissolved in the culture medium at 12.8 mg/mL. The stock solutions were diluted by the culture medium to the testing concentration at 128 μg/mL (compound 9-17 were diluted to 1,280 μg/mL). The solutions were then serially diluted two fold in a 96-well plate and were used in the cytotoxicity assay immediately.
Cell culture and cytotoxicity assay. A549 cells (ATCC CCL-185) were cultured in high glucose DMEM (Sigma-Aldrich, D6429) supplemented with 10% FBS, 1% penicillin-streptomycin solution (Sigma-Aldrich, P4333), 1% gentamicin solution (Sigma-Aldrich, G1272) and 1% amphotericin B solution (Sigma-Aldrich, A2942) at 37° C. in a humidified atmosphere containing 5% CO2. After cells reached 80%˜90% confluency, they were detached and counted using an Invitrogen Countess automated cell counter. Cells with viability over 90% were seeded at a density of 5×10^3 cells per well in 96-well cell culture plates. After overnight culture, the culture medium in each well removed with a pipet. 80 μL of the compound solutions from each well of the 96-well plate prepared above were transferred to this 96-well plate containing the cells, and the plates were incubated for 20 h. After addition of 8 μL of 110 μg/mL resazurin, the plates were incubated for further 3 h at 37° C. in 5% CO2. The fluorescence intensity was measured using a Tecan M200 Infinite Pro microplate reader at excitation 560 nm, emission 590 nm. IC50 were calculated by curve fitting the inhibition values vs. log(concentration) using GraphPad's Prism. The cytotoxicity assays (in triplicate) were repeated twice using freshly prepared cells and compound solutions.

E. coli ATCC 25922 = assay: Antibacterial assay, MIC/MBC by broth microdilution (CLSI); assay type: cell-based; conditions: for MIC: repeated twice, a/b = both values
Protocol: (§1) Antibacterial assay. The minimum inhibitory concentrations (MICs) and the minimum bactericidal concentrations (MBCs) were determined by the broth microdilution method as described in the CLSI (The Clinical & Laboratory Standards Institute) guidelines (Performance standards for antimicrobial susceptibility testing: Clinical and Laboratory Standards Institute (CLSI), Twenty-Fifth informational supplement. Document M100-S25: […]; Vol. 35). All bacterial strains were cultured in cation-adjusted Muller Hinton broth (CAMHB) up to log-phase and then diluted to give a concentration of 7.5×10^5 CFU/mL. The gold complexes were dissolved in DMSO or water as stock solutions, which were then serially diluted two-fold in a 96-well plate. Aliquots (100 μL) of the dilutions were mixed with equal volumes of the bacterium suspension in a 96 well plate (in triplicates). The plates were incubated at 37° C. for 18 h without shaking. Negative and positive controls were included in the same well plate with wells having the culture medium only and bacteria solution only, respectively. The sample concentration that gave inhibition values above 90% were determined as MICs as calculated from absorbance values at 600 nm (OD600) obtained using a Tecan SPARK IOM plate reader. To determine minimum bactericidal concentrations (MBCs), agar plates were treated with 5 μL sample solutions from each well, and then incubated at 37° C. for 18 h without shaking. The sample concentration that gave no colony formed on agar plates were determined as MBCs.
(§2) Selection of bacteria. The ESKAPE pathogens were chosen as they are responsible for the majority of nosocomial infections and also as they provide a good scope of strains including both Gram-negative and Gram-positive species. A. baumannii NCTC 13420 was originally identified in 24 hospitals in the UK during 2000-2003, which produced OXA-51-like β-lactamases, and was highly resistant to ampicillin, piperacillin, piperacillin/tazobactam, ceftazidime, cefotaxime, gentamicin and ciprofloxacin. P. aeruginosa NCTC13437 produces VIM-10 metallo-carbapenemase and VEB-1 (Vietnamese extended-spectrum beta-lactamase). Wild-type strain E. cloacae NCTC 13405 (originally named E. cloacae 684) was isolated from patients at the London Hospital during 1982-1983. This strain has inducible AmpC β-lactamase and is resistant to ampicillin/amoxicillin and cefoxitin. K. pneumoniae ATCC 700603 was isolated from the urine of a hospitalized patient in Richmond, Va. in 1994, and it produces SHV-18 extended spectrum beta-lactamase (ESBL). JE2 (USA300) is a methicillin-resistant S. aureus (MRSA) strain, also resistant to beta-lactams, ciprofloxacin, tetracycline, macrolides (erythromycin), lincosamides (clindamycin), streptogramin B, and mupirocin. E. faecium ATCC 700221, a positive fecal VRE (vancomycin-resistant enterococcus) isolate, is resistant to several antibiotics including vancomycin and teicoplanin. The quality control strain, Gram-negative E. coli ATCC 25922, was included in all assays and validated with ciprofloxacin and […].

E. cloacae NCTC 13405 = assay: as above; assay type: cell-based; conditions: E. cloacae NCTC 13405; for MIC: repeated twice, a/b = both values
Protocol: as §1, §2

E. faecalis ATCC 700221 = assay: as above; assay type: cell-based; conditions: for MIC: repeated twice, a/b = both values
Protocol: as §1, §2

[2] = tested on: K. pneumoniae ATCC 700603; assay: as above; assay type: cell-based; conditions: for MBC (in brackets) / MIC: K. pneumoniae ATCC 700603; for MIC: repeated twice, a/b = both values
Protocol: as §1, §2

P. aeruginosa NCTC 13437 = assay: as above; assay type: cell-based; conditions: P. aeruginosa NCTC 13437; for MIC: repeated twice, a/b = both values
Protocol: as §1, §2

S. aureus JE2 (USA300) = assay: as above; assay type: cell-based; conditions: S. aureus JE2 (USA300); for MIC: repeated twice, a/b = both values
Protocol: as §1, §2

A. baumannii NCTC 13420 = assay: as above; assay type: cell-based; conditions: A. baumannii NCTC 13420; for MIC: repeated twice, a/b = both values
Protocol: as §1, §2

Row | Substance | Log P [1] | IC50 against A549 cells (A549 cells) | MBC (in brackets) (E. coli ATCC 25922) | MIC (E. coli ATCC 25922) | MBC (in brackets) (E. cloacae NCTC 13405) | MIC (E. cloacae NCTC 13405) | MBC (in brackets) (E. faecalis ATCC 700221) | MBC (in brackets) [2] | MIC [2] | MIC (P. aeruginosa NCTC 13437) | MBC (in brackets) (S. aureus JE2 (USA300)) | MBC (in brackets) (A. baumannii NCTC 13420) | MIC (A. baumannii NCTC 13420) | MBC (in brackets) (P. aeruginosa NCTC 13437) | MIC (S. aureus JE2 (USA300)) | MIC (E. faecalis ATCC 700221) | MIC or MIC/MBC, fold lower than auranofin ([2]; K. pneumoniae) | MIC/MBC ([2]; K. pneumoniae)
1 | (1-Thio-β-D-glucopyranosato)(trimethylphosphine) gold(I) [Compound 15] | −1.63 | 52.2 ± 1.0 µg/mL | 9 (9) μM/mL | 9 (9) μM/mL | 17 μM/mL | 4/9 | (0.5) μM/mL | 34 (34) μM/mL | 34 (34) μM/mL | >547 μM/mL | (1) μM/mL | 17 μM/mL | 17/4 |  |  |  |  | 
2 | (1-Thio-β-D-maltosato)(triethylphosphine) gold(I) [Compound 14] | −1.69 | 31.0 ± 2.4 µg/mL | 12 (12) μM/mL | 12 (12) μM/mL | 190 (190) μM/mL | 190 (190) μM/mL | (0.4) μM/mL |  | >381 μM/mL | 381 (381) μM/mL | 4 (0.09) μM/mL | 24 (24) μM/mL | 24 (24) μM/mL | 381 (381) μM/mL |  |  |  | 
3 | (2-Acetamido-2-deoxy-1-thio-β-D-glucopyranosato)(trimethylphosphine) gold(I) [Compound 17] | −2.03 | 35.5 ± 0.9 µg/mL | (31) μM/mL | 8/31 | 16 μM/mL | 8/16 | (0.5) μM/mL | 126 μM/mL | 31 μM/mL | >503 μM/mL | 0.5 (0.5) μM/mL | 16 μM/mL | 16/8 |  | 0.5 (0.5) μM/mL |  |  | 
4 | (4-Aminobenzenethiolato)(triethylphosphine) gold(I) [Compound 20] | 1.36 | 6.5 ± 1.1 µg/mL | 9 (9) μM/mL | 9 (9) μM/mL | 36 (36) μM/mL | 36 (36) μM/mL | (0.1) μM/mL | 36 (36) μM/mL | 36 (36) μM/mL | 146 (146) μM/mL | 2 (0.07) μM/mL | 18 (18) μM/mL | 18 (18) μM/mL | 146 (146) μM/mL |  | 0.02 μM/mL | 10 fold | 36 µM
5 | (Benzenethiolato)(triethylphosphine) gold(I) [Compound 18] | 2.20 | 4.3 ± 0.2 µg/mL | (151) μM/mL | 151 μM/mL | 603 μM/mL | 75 μM/mL | 1 μM/mL |  | >603 μM/mL | 302 (302) μM/mL | (0.6) μM/mL | (>603) μM/mL | 19/75 | 302 (302) μM/mL | 0.02 μM/mL | 0.6 μM/mL |  | 
